Results as given in patent US8206983B2, “In vitro methods for the induction and maintenance of plant cell lines as single suspension cells with intact cell walls” (Dow AgroSciences, LLC., priority 2006, dated 2012).

Experiments:
[1] = tested on: JTNT1 tobacco cell suspension cultures; test: Single cell production, growth and viability of JTNT1 suspension with microtubule inhibitors in 24-well plates, glycerol medium; settings: for cell growth and appearance: all concentrations tested (1, 3, 10 μM)
Source text: JTNT1 Tobacco Suspension Cultures. […] Furthermore, Suc stabilizes preformed microtubules, making an examination of the effects of MTIs on preformed microtubules unfeasible. In addition, sucrose increases solution viscosity substantially, and tubulin polymerization is altered at least in part by slowed dimer and polymer diffusion rates. Thus, it was important to have low or no sucrose in medium where the single cell production. Thus, a new JTNT1 line habituated in Glycerol was developed for this study.
Each of the 24 well contained 1 ml of JTNT1 suspension. The 24-well plates were kept on an Innova 4900 Multi Environmental Shaker with special clamps and harnesses to allow stacking of plates up to 6 plates high. The plates were rotated at a speed of 130 rpm and 25° C. in dark.
Single Cell Production. Each compound was dissolved in dimethyl sulfoxide (DMSO) to provide 0.5 Molar stock solutions. One ml of JTNT1 suspension (1 ml PCV/20 ml tobacco media) was added to each well of the 24 well plates. To each well an individual chemical was added to achieve the desired concentrations (at 1 μM, 3 μM, and 10 μM). The cultures were allowed to grow for 7 days on the Innova Shaker. Each day turbidity measurements was taken on each well using a SpectraMax M2^e by Molecular devices (set at 600 absorbance, with 5 readings taken per well). On day 7, cells were observed using the Leica 5000 inverted confocal microscope for formation of single cells and cell viability.

JTNT1 single cells = test: Cytological characterization of JTNT1 single cells (nucleus, cell wall); type: cell-based, tobacco
Experimental: JTNT1 Tobacco single cell initiation and sample collection. JTNT1 Tobacco single cells were initiated in two different media, NT1B with 3% sucrose (NT1B-Suc) and NT1B with 3% glycerol (NT1B-Gly) in 3.5 day culture cycle. […] The flasks were closed with a foam stopper and cultured on a orbital shaker at 130 rpm in dark at 25-28° C. The cultures were sub cultured every 3.5 days up to a period of 14 days. Four samples (Suc/Gly grown cells and the control cultures in Suc/Gly media with 0.2% DMSO) of the cultures were harvested every 3.5 days by spinning the suspension at 3000 rpm for 5 minutes. The samples were immediately lyophilized to prevent any cell oxidation to minimize any deleterious effect on the samples introduced post harvest. Single cells were stained with Hoechst nuclear stain for an hour and observed under scopes for any nuclear anomaly up to two culture cycles.
Cell viability and Cell wall. Established JTNT1 single cells were used to stain with FUN1 (F-7030, Molecular Probes, Invitrogen Inc) cell stain which is used for viability test in yeast, and this contains two color fluorescent probes. The third one, Calcofluor White M2R which stains cell wall, was used to stain the cells. For JTNT1 single cells, […] of FUN1 stain is added and the culture was incubated at room temperature for 20 mins 1 mL fresh culture media was added to wash the excess stain and centrifuged at 3000 rpm; the supernantant was discarded. The cells were examined and imaged on Zeiss ApoTome microscope.
Nucleus. Single cells were stained with Hoechst nuclear stain for an hour and observed on Zeiss Apo Tome for any nuclear anomaly up to two culture cycles. Crystal violet stain was also used as a live nuclear stain for observing nuclear structure for ploidy characterization

plant tubulin = settings: 1 M Sucrose; cited from earlier work
JTNT1 cells = test: Plasma membrane staining of single cells with FM4-64; type: cell-based, tobacco; settings: 100 nM
Experimental: Plasmamembrane. JTNT1 cells were incubated with 5 μm FM4-64 (styryl dye) for 5 minutes and washed with fresh media. The culture was centrifuged at 3000 rpm, and fresh media was added. The cells were visualized on Zeiss ApoTome microscope.

For COc1ccc([C@H]2CC=CC[C@@H]2[N+](=O)[O-])c(OC)c1OC (racemic) [trimethoxyphenylcyclohexene, (±)-4S,5R-4-nitro-5-(2,3,4-trimethoxyphenyl)-cyclohexene], the bleaching of cells [1] was “mild bleaching”, the single cell formation ([1]; 1 μM, 3 μM, and 10 μM) was “promoted the formation of single cells” and the cell viability ([1]; across all levels (1 μM, 3 μM, 10 μM)) was 80-90%. The “cell growth and appearance” value [1] was “grew very well”, the “nuclear organization of single cells” value (JTNT1 single cells; 1 uM, 3.5 d cultures) was “single nucleus” and the nuclear ploidy (JTNT1 single cells; 14 days of continuous treatments) was “low or no nuclear ploidy percentage”.

With COP(=S)(NC(C)C)Oc1ccc(C)cc1[N+](=O)[O-] (stereo not drawn) [APM, Amiprophosmethyl] the “concentration at which single cells were formed” value [1] was 1 to 10 µM, the cell growth ([1]; 1 μM and 3 μM) was “grew well” and the “effect at higher concentration” value ([1]; above 1-10 μM) was “remarkable reduction of growth and cell division inhibition”. For the same compound, the “cell viability (Fluorescein diacetate and Propidium Iodine stains)” value ([1]; tobacco, 7 days) was “up to 70%” and the “effect on plant microtubule length” value (plant tubulin) was “concentration-dependent decrease in plant microtubule length”.

With CSC(=O)c1c(C(F)F)nc(C(F)(F)F)c(C(=O)SC)c1CC(C)C [Dithiopyr] the single cell formation ([1]; 1 μM and 3 μM) was “single cells were formed”, the single cell formation ([1]; 10 μM) was “the concentration of the cells was low” and the “cell growth and appearance” value [1] was “healthy, growing and yellow in color”.

With CCC(C)(CC)c1cc(NC(=O)c2c(OC)cccc2OC)on1 [Isoxeben] the “FM4-64 staining of single cells” value (JTNT1 cells) was “extensive vesicle on the surface”.
